What was measured:
Experiment in all cases: relative viability (nuclei count vs DMSO), 5 days (fraction); higher = more cells survive
[1] = compound: O=C(Nc1cccc(C(F)(F)F)c1)Nc1cc(S(=O)(=O)NC2CC2)ccc1-c1ccsc1 [AGI-6780] + CC(C)C[C@H](NC(=O)[C@H](Cc1ccccc1)NC(=O)c1cnccn1)B(O)O [Bortezomib] (partner 0.002 µM)
Method in brief: (§1)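 Lung cancer cell lines were pin-tool dosed in 1536-well plates on the day after seeding, with either a lone drug or a fixed anchor-drug dose plus five library-drug doses (not always all listed) in √10 steps. Nuclei were counted on 4× images after 5 days. Relative viability is the ratio of treated-well to vehicle-well nuclei counts, with each value a median of duplicate plates.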

[2] = compound: O=C(Nc1cccc(C(F)(F)F)c1)Nc1cc(S(=O)(=O)NC2CC2)ccc1-c1ccsc1 [AGI-6780] + Cc1nc(NC(=O)N2CCC[C@H]2C(N)=O)sc1-c1ccnc(C(C)(C)C(F)(F)F)c1 [Alpelisib] (partner 2 µM)
Method in brief: as §1

[3] = compound: O=C(Nc1cccc(C(F)(F)F)c1)Nc1cc(S(=O)(=O)NC2CC2)ccc1-c1ccsc1 [AGI-6780] + Cc1nc(Nc2ncc(C(=O)Nc3c(C)cccc3Cl)s2)cc(N2CCN(CCO)CC2)n1 [Dasatinib] (partner 0.075 µM)
Method in brief: as §1

[4] = compound: O=C(Nc1cccc(C(F)(F)F)c1)Nc1cc(S(=O)(=O)NC2CC2)ccc1-c1ccsc1 [AGI-6780] + CC(=O)c1c(C)c2cnc(Nc3ccc(N4CCNCC4)cn3)nc2n(C2CCCC2)c1=O [Palbociclib] (partner 0.5 µM)
Method in brief: as §1

Row | Cell Line | relative viability ([1]; first compound 0.08 µM) | relative viability ([1]; first compound 0.253 µM) | relative viability ([1]; first compound 0.8 µM) | relative viability ([1]; first compound 2.53 µM) | relative viability ([1]; first compound 8 µM) | relative viability ([2]; first compound 0.08 µM) | relative viability ([2]; first compound 0.253 µM) | relative viability ([2]; first compound 0.8 µM) | relative viability ([2]; first compound 2.53 µM) | relative viability ([2]; first compound 8 µM) | relative viability ([3]; first compound 0.08 µM) | relative viability ([3]; first compound 0.253 µM) | relative viability ([3]; first compound 0.8 µM) | relative viability ([3]; first compound 2.53 µM) | relative viability ([3]; first compound 8 µM) | relative viability ([4]; first compound 0.08 µM) | relative viability ([4]; first compound 0.253 µM) | relative viability ([4]; first compound 0.8 µM) | relative viability ([4]; first compound 2.53 µM) | relative viability ([4]; first compound 8 µM)
1 | NCI-H2087 | 0.824 | 0.958 | 0.77 | 0.997 | 0.879 | 1.17 | 1.1 | 1.15 | 0.983 | 1.14 | 0.843 | 0.866 | 0.888 | 0.852 | 0.838 | 0.244 | 0.265 | 0.221 | 0.25 | 0.245
2 | NCI-H1395 |  |  |  |  |  | 1.14 | 1.15 | 1.23 |  | 0.969 | 0.403 | 0.478 | 0.428 | 0.36 | 0.376 | 0.629 | 0.603 | 0.616 | 0.572 | 0.656
3 | NCI-H1648 |  |  |  |  |  |  |  |  |  |  |  |  |  |  |  | 0.242 | 0.232 | 0.335 | 0.26 | 0.25
4 | NCI-H520 | 0.577 | 0.661 | 0.63 | 0.697 | 0.779 | 1.05 | 1.08 | 0.959 | 0.732 | 0.922 | 0.197 | 0.185 | 0.216 | 0.177 | 0.194 | 0.208 | 0.25 | 0.232 | 0.235 | 0.207
5 | A549 |  |  |  |  |  | 0.797 | 0.662 | 0.76 | 0.593 | 0.747 |  |  |  |  |  |  |  |  |  | 
6 | LC-2-ad | 1.02 | 1.05 | 0.994 | 1.04 | 1.01 | 0.945 | 0.983 | 0.897 | 0.862 | 0.826 | 0.604 | 0.573 | 0.677 | 0.482 | 0.515 | 0.536 | 0.525 | 0.524 | 0.526 | 0.463
7 | EMC-BAC-2 | 1.14 | 1.03 | 1.1 | 0.856 | 1.14 | 0.797 | 0.73 | 0.756 | 0.67 | 0.778 | 0.313 | 0.338 | 0.311 | 0.273 | 0.334 |  | 0.535 | 0.487 | 0.437 | 0.543
8 | EBC-1 | 0.781 | 0.566 | 0.485 | 0.601 | 0.529 | 0.965 | 0.923 | 0.798 | 0.783 | 0.841 |  |  |  |  |  |  |  |  |  | 
9 | NCI-H1792 | 0.834 | 0.917 | 1.01 | 0.867 | 0.862 | 0.763 | 0.677 | 0.693 | 0.702 | 0.558 |  | 0.859 | 0.663 | 0.719 | 0.728 |  | 0.574 | 0.668 | 0.66 | 0.615
10 | NCI-H23 | 1.08 | 1.2 | 1.02 | 0.86 | 1.19 | 0.971 | 0.745 | 0.811 | 0.473 | 0.791 | 0.922 | 0.701 | 0.752 | 0.378 | 0.735 | 0.437 | 0.528 | 0.457 | 0.394 | 0.541

Reference: the supplement of paper PMC10307832
